One assay has as its system Klebsiella pneumoniae. Put plainly: Antibacterial activity against drug-resistant Klebsiella pneumoniae by broth microdilution method. It counts as functional. On the technique in general: In broth dilution the organism is exposed to a series of concentrations in liquid medium.
Assay [1] has as its system Staphylococcus epidermidis. The assay can be described thus: Antibacterial activity against drug-resistant Staphylococcus epidermidis by broth microdilution method. It counts as functional.
Assay [2] has as its system Pseudomonas aeruginosa. Put plainly: Antibacterial activity against Pseudomonas aeruginosa ATCC 27853 by broth microdilution method. It is filed as functional.
The subject of assay [3] is Escherichia coli. The assay can be described thus: Antibacterial activity against Escherichia coli ATCC 25922 by broth microdilution method. It is filed as functional.
The next assay concerns Salmonella typhi. The assay can be described thus: Antibacterial activity against drug-resistant Salmonella typhi by broth microdilution method. It counts as functional, Salmonella enterica subsp. enterica serovar Typhi. Particulars: Salmonella enterica.
Assay [4] relates to Staphylococcus aureus. Put plainly: Antibacterial activity against Staphylococcus aureus ATCC 25923 by broth microdilution method. It counts as functional.
In assay [5] the test system is Pseudomonas aeruginosa. Put plainly: Antibacterial activity against drug-resistant Pseudomonas aeruginosa by broth microdilution method. It counts as functional.
Assay [6] concerns Escherichia coli. Put plainly: Antibacterial activity against drug-resistant Escherichia coli by broth microdilution method. It is filed as functional.
Assay [7] relates to Staphylococcus aureus. The assay can be described thus: Antibacterial activity against drug-resistant Staphylococcus aureus by broth microdilution method. It counts as functional.
Assay [8] has as its system Escherichia coli. Put plainly: Antibacterial activity against Escherichia coli ATCC 35218 by broth microdilution method. It is filed as functional.

Values after ≈ are worked out from the molar mass of the structure shown.

What is called MIC is the lowest concentration found to suppress growth. A higher MIC goes with a less susceptible organism. Take `CC[C@H]1OC(=O)[C@H](C)C(=O)[C@H](C)[C@@H](O[C@@H]2O[C@H](C)C[C@H](N(C)C)[C@H]2O)[C@](C)(OC)C[C@@H](C)C(=O)[C@@](C)(O)[C@H](O)[C@]1(C)O`: the MIC with Klebsiella pneumoniae was above 128 µg/mL; in [1] it was above 128 µg/mL; with Pseudomonas aeruginosa [2], above 128 µg/mL; against Escherichia coli [3], above 128 µg/mL; in the assay on Salmonella typhi, above 128 µg/mL; in the assay on Staphylococcus aureus [4], 64 µg/mL (≈ 106 µM). The MIC against Pseudomonas aeruginosa [5], in the assay with Escherichia coli [6], with Staphylococcus aureus [7] and against Escherichia coli [8] was above 128 µg/mL each time.
Turning to `CC[C@H]1OC(=O)[C@H](C)C(=O)[C@H](C)[C@@H](O[C@@H]2O[C@H](C)C[C@H](N(C)C)[C@H]2O)[C@](C)(OC)C[C@@H](C)C(=O)[C@@](C)(O)[C@H]2OC(=O)O[C@]12C`, the MIC in the assay on Klebsiella pneumoniae is above 128 µg/mL; in [1], 64 µg/mL (≈ 102 µM); with Pseudomonas aeruginosa [2] it was above 128 µg/mL; with Escherichia coli [3], above 128 µg/mL; against Salmonella typhi it was above 128 µg/mL; against Staphylococcus aureus [4], 128 µg/mL (≈ 203 µM). Further, the MIC against Pseudomonas aeruginosa [5], against Escherichia coli [6], in the assay on Staphylococcus aureus [7] and against Escherichia coli [8] was above 128 µg/mL in each case.
Turning to `CC[C@H]1OC(=O)[C@H](C)C(=O)[C@H](C)[C@@H](O[C@@H]2O[C@H](C)C[C@H](N(C)C)[C@H]2O)[C@](C)(OC)C[C@@H](C)C(=O)[C@@](C)(O)[C@H]2OS(=O)O[C@]12C` (stereo not given in full), the MIC is above 128 µg/mL against Klebsiella pneumoniae; 8 µg/mL (≈ 12.3 µM) in [1]; above 128 µg/mL with Pseudomonas aeruginosa [2]; above 128 µg/mL against Escherichia coli [3]; above 128 µg/mL in the assay with Salmonella typhi; 64 µg/mL (≈ 98.5 µM) with Staphylococcus aureus [4]. Besides, the MIC against Pseudomonas aeruginosa [5], against Escherichia coli [6], in the assay on Staphylococcus aureus [7] and in the assay on Escherichia coli [8] was above 128 µg/mL throughout.
Take `CC[C@H]1OC(=O)[C@H](C)C(=O)[C@H](C)[C@@H](O[C@@H]2O[C@H](C)C[C@H](N(C)C)[C@H]2O)[C@](C)(OC)C[C@@H](C)C(=O)[C@]2(C)O[C@H]2[C@]1(C)O`: the MIC in the assay on Klebsiella pneumoniae was above 128 µg/mL; in assay [1], 128 µg/mL (≈ 219 µM); against Pseudomonas aeruginosa [2], above 128 µg/mL; against Escherichia coli [3], above 128 µg/mL; against Salmonella typhi, above 128 µg/mL; with Staphylococcus aureus [4] it was 128 µg/mL (≈ 219 µM). Moreover, the MIC in the assay with Pseudomonas aeruginosa [5], with Escherichia coli [6], against Staphylococcus aureus [7] and against Escherichia coli [8] was above 128 µg/mL throughout.
`CC[C@H]1OC(=O)[C@H](C)C(=O)[C@H](C)[C@@H](O[C@@H]2O[C@H](C)C[C@H](N(C)C)[C@H]2O)[C@](C)(OC)C[C@@H](C)C(=O)[C@@H](C)[C@H]2OC(=O)O[C@@]21C`: the MIC against Klebsiella pneumoniae was 128 µg/mL (≈ 209 µM); in assay [1], 0.0625 µg/mL (≈ 0.102 µM); in the assay on Pseudomonas aeruginosa [2], above 128 µg/mL; in the assay with Escherichia coli [3], 128 µg/mL (≈ 209 µM); with Salmonella typhi, 128 µg/mL (≈ 209 µM); against Staphylococcus aureus [4], 64 µg/mL (≈ 104 µM). In addition, the MIC in the assay with Pseudomonas aeruginosa [5] is above 128 µg/mL; with Escherichia coli [6] it was 64 µg/mL (≈ 104 µM); in the assay with Staphylococcus aureus [7], 128 µg/mL (≈ 209 µM); against Escherichia coli [8], 128 µg/mL (≈ 209 µM).
Take `CC[C@H]1OC(=O)[C@H](C)[C@@H](O[C@H]2C[C@@](C)(OC)[C@@H](O)[C@H](C)O2)[C@H](C)[C@@H](O[C@@H]2O[C@H](C)C[C@H](N(C)C)[C@H]2O)[C@](C)(OC)C[C@@H](C)C(=O)[C@H](C)[C@@H](O)[C@]1(C)O` [CLARITHROMYCIN]: the MIC worked out at 64 µg/mL (≈ 85.6 µM) in the assay on Klebsiella pneumoniae; 64 µg/mL (≈ 85.6 µM) in [1]; 64 µg/mL (≈ 85.6 µM) against Pseudomonas aeruginosa [2]; 64 µg/mL (≈ 85.6 µM) in the assay on Escherichia coli [3]; 64 µg/mL (≈ 85.6 µM) in the assay on Salmonella typhi; 32 µg/mL (≈ 42.8 µM) against Staphylococcus aureus [4]. Further, the MIC is 128 µg/mL (≈ 171 µM) against Pseudomonas aeruginosa [5], 64 µg/mL (≈ 85.6 µM) against Escherichia coli [6], above 128 µg/mL in the assay on Staphylococcus aureus [7] and 32 µg/mL (≈ 42.8 µM) against Escherichia coli [8].
With `CC[C@H]1OC(=O)[C@H](C)C(=O)[C@H](C)[C@@H](O[C@@H]2O[C@H](C)C[C@H](N(C)C)[C@H]2O)[C@](C)(OC)C[C@@H](C)C(=O)[C@H](C)[C@H]2N(CCCCn3cnc(-c4cccnc4)c3)C(=O)O[C@]12C` [TELITHROMYCIN], the MIC in the assay on Klebsiella pneumoniae was 16 µg/mL (≈ 19.7 µM); in assay [1], 0.125 µg/mL (≈ 0.154 µM); with Pseudomonas aeruginosa [2], 64 µg/mL (≈ 78.8 µM); against Escherichia coli [3], 2 µg/mL (≈ 2.46 µM); in the assay on Salmonella typhi, 16 µg/mL (≈ 19.7 µM); in the assay on Staphylococcus aureus [4] it was 16 µg/mL (≈ 19.7 µM). Besides, the MIC in the assay with Pseudomonas aeruginosa [5] was determined as 64 µg/mL (≈ 78.8 µM); against Escherichia coli [6], 32 µg/mL (≈ 39.4 µM); against Staphylococcus aureus [7], 16 µg/mL (≈ 19.7 µM); against Escherichia coli [8] it was 8 µg/mL (≈ 9.85 µM).

(Values after ChEMBL document CHEMBL2380278, “Synthesis and antibacterial evaluation of a novel series of 10-hydroxyl ketolide derivatives” (2013).)
